In article doi:10.1101/2022.10.27.513961v1 (bioRxiv, 2022):
Where a SMILES comes first, the peptide text is derived from it. Bridges are numbered along the chain shown (N, C = ends).

Assays:
Format in all cases: cell-based
WM164 cells [1] = experiment: Lipidome analysis, shotgun tandem MS of lipid extracts
WM164 cells [2] = experiment: Cytotoxicity, resazurin assay
HT144 cells [3] = experiment: Cytotoxicity, resazurin assay; details: HT144, cTI 0.5 to 3 µM over 100 days
WM164 cells [4] = experiment: Co-treatment of dabrafenib with peptide, resazurin assay; details: drug-naïve WM164, drug (50 nM) or peptide (at IC50) added alone, 72 h
WM164 cells [5] = experiment: Microscopy during long-term treatment; details: WM164, after 2 µM cTI for one week
WM164 cells [6] = experiment: Real-time cell analysis, xCELLigence impedance
HT144 cells [7] = experiment: Microscopy during long-term treatment; details: HT144, treatment with cTI for 100 days
HT144 cells [8] = experiment: Real-time cell analysis, xCELLigence impedance

For CC[C@H](C)[C@@H]1NC(=O)CNC(=O)[C@H](CCCNC(=N)N)NC(=O)[C@H](Cc2ccc(O)cc2)NC(=O)[C@@H]2CSSC[C@H](NC1=O)C(=O)N[C@@H](Cc1ccc(O)cc1)C(=O)N[C@@H](CCCNC(=N)N)C(=O)N[C@@H](CCCNC(=N)N)C(=O)N[C@H]1CSSC[C@H](NC(=O)[C@H](Cc3c[nH]c4ccccc34)NC(=O)[C@H](CCCCN)NC(=O)CNC(=O)[C@H](CCCNC(=N)N)NC1=O)C(=O)N[C@@H](Cc1ccccc1)C(=O)N[C@@H](CCCNC(=N)N)C(=O)N[C@@H](C(C)C)C(=O)N2 [cTI, cyclic tachyplesin I] (cyclo(CFRVCYRGICYRRCRGKW); disulfide 1-14, 5-10), the “PC 30:0, Mean nmol/M cells” value (WM164 cells [1]; WM164, 1µM cTI_15d) was 0.78 nmol/M cells, the “PC 30:1, Mean nmol/M cells” value (WM164 cells [1]; WM164, 1µM cTI_15d) was 0.42 nmol/M cells and the “PC 32:0, Mean nmol/M cells” value (WM164 cells [1]; WM164, 1µM cTI_15d) was 0.50 nmol/M cells. For the same compound, the “PC 32:1, Mean nmol/M cells” value (WM164 cells [1]; WM164, 1µM cTI_15d) was 3.15 nmol/M cells, the “PC 32:2, Mean nmol/M cells” value (WM164 cells [1]; WM164, 1µM cTI_15d) was 0.38 nmol/M cells and the “PC 34:1, Mean nmol/M cells” value (WM164 cells [1]; WM164, 1µM cTI_15d) was 5.61 nmol/M cells. For the same compound, the “PC 34:2, Mean nmol/M cells” value (WM164 cells [1]; WM164, 1µM cTI_15d) was 2.35 nmol/M cells, the “PC 36:1, Mean nmol/M cells” value (WM164 cells [1]; WM164, 1µM cTI_15d) was 0.86 nmol/M cells and the “PC 36:2, Mean nmol/M cells” value (WM164 cells [1]; WM164, 1µM cTI_15d) was 3.56 nmol/M cells. For the same compound, the “PE 32:1, Mean nmol/M cells” value (WM164 cells [1]; WM164, 1µM cTI_15d) was 0.21 nmol/M cells, the “PE 34:1, Mean nmol/M cells” value (WM164 cells [1]; WM164, 1µM cTI_15d) was 0.89 nmol/M cells and the “PE 34:2, Mean nmol/M cells” value (WM164 cells [1]; WM164, 1µM cTI_15d) was 0.71 nmol/M cells. For the same compound, the “PE 36:1, Mean nmol/M cells” value (WM164 cells [1]; WM164, 1µM cTI_15d) was 0.75 nmol/M cells, the “PE 36:2, Mean nmol/M cells” value (WM164 cells [1]; WM164, 1µM cTI_15d) was 1.48 nmol/M cells and the “PE 36:3, Mean nmol/M cells” value (WM164 cells [1]; WM164, 1µM cTI_15d) was 0.19 nmol/M cells. For the same compound, the “PE 38:4, Mean nmol/M cells” value (WM164 cells [1]; WM164, 1µM cTI_15d) was 0.27 nmol/M cells, the “PE 38:5, Mean nmol/M cells” value (WM164 cells [1]; WM164, 1µM cTI_15d) was 0.26 nmol/M cells and the “PE 40:6, Mean nmol/M cells” value (WM164 cells [1]; WM164, 1µM cTI_15d) was 0.16 nmol/M cells. For the same compound, the “PI 34:1, Mean nmol/M cells” value (WM164 cells [1]; WM164, 1µM cTI_15d) was 0.42 nmol/M cells, the “PI 34:2, Mean nmol/M cells” value (WM164 cells [1]; WM164, 1µM cTI_15d) was 0.29 nmol/M cells and the “PI 36:1, Mean nmol/M cells” value (WM164 cells [1]; WM164, 1µM cTI_15d) was 1.12 nmol/M cells. For the same compound, the “PI 36:2, Mean nmol/M cells” value (WM164 cells [1]; WM164, 1µM cTI_15d) was 1.12 nmol/M cells, the “PI 38:2, Mean nmol/M cells” value (WM164 cells [1]; WM164, 1µM cTI_15d) was 0.19 nmol/M cells and the “PI 38:3, Mean nmol/M cells” value (WM164 cells [1]; WM164, 1µM cTI_15d) was 0.34 nmol/M cells. The “PI 38:4, Mean nmol/M cells” value (WM164 cells [1]; WM164, 1µM cTI_15d) was 0.64 nmol/M cells, the “PI 38:5, Mean nmol/M cells” value (WM164 cells [1]; WM164, 1µM cTI_15d) was 0.22 nmol/M cells and the “PC 30:0, Mean nmol/M cells” value (WM164 cells [1]; WM164, 2µM cTI_60d) was 0.51 nmol/M cells. The “PC 30:1, Mean nmol/M cells” value (WM164 cells [1]; WM164, 2µM cTI_60d) was 0.27 nmol/M cells, the “PC 32:0, Mean nmol/M cells” value (WM164 cells [1]; WM164, 2µM cTI_60d) was 0.34 nmol/M cells and the “PC 32:1, Mean nmol/M cells” value (WM164 cells [1]; WM164, 2µM cTI_60d) was 1.93 nmol/M cells. The “PC 32:2, Mean nmol/M cells” value (WM164 cells [1]; WM164, 2µM cTI_60d) was 0.26 nmol/M cells, the “PC 34:1, Mean nmol/M cells” value (WM164 cells [1]; WM164, 2µM cTI_60d) was 4.19 nmol/M cells and the “PC 34:2, Mean nmol/M cells” value (WM164 cells [1]; WM164, 2µM cTI_60d) was 1.64 nmol/M cells. The “PC 36:1, Mean nmol/M cells” value (WM164 cells [1]; WM164, 2µM cTI_60d) was 0.82 nmol/M cells, the “PC 36:2, Mean nmol/M cells” value (WM164 cells [1]; WM164, 2µM cTI_60d) was 2.77 nmol/M cells and the “PE 32:1, Mean nmol/M cells” value (WM164 cells [1]; WM164, 2µM cTI_60d) was 0.16 nmol/M cells. The “PE 34:1, Mean nmol/M cells” value (WM164 cells [1]; WM164, 2µM cTI_60d) was 0.68 nmol/M cells, the “PE 34:2, Mean nmol/M cells” value (WM164 cells [1]; WM164, 2µM cTI_60d) was 0.71 nmol/M cells and the “PE 36:1, Mean nmol/M cells” value (WM164 cells [1]; WM164, 2µM cTI_60d) was 0.78 nmol/M cells. For the same compound, the “PE 36:2, Mean nmol/M cells” value (WM164 cells [1]; WM164, 2µM cTI_60d) was 1.83 nmol/M cells, the “PE 36:3, Mean nmol/M cells” value (WM164 cells [1]; WM164, 2µM cTI_60d) was 0.19 nmol/M cells and the “PE 38:4, Mean nmol/M cells” value (WM164 cells [1]; WM164, 2µM cTI_60d) was 0.28 nmol/M cells. For the same compound, the “PE 38:5, Mean nmol/M cells” value (WM164 cells [1]; WM164, 2µM cTI_60d) was 0.27 nmol/M cells, the “PE 40:6, Mean nmol/M cells” value (WM164 cells [1]; WM164, 2µM cTI_60d) was 0.17 nmol/M cells and the “PI 34:1, Mean nmol/M cells” value (WM164 cells [1]; WM164, 2µM cTI_60d) was 0.25 nmol/M cells. For the same compound, the “PI 34:2, Mean nmol/M cells” value (WM164 cells [1]; WM164, 2µM cTI_60d) was 0.17 nmol/M cells, the “PI 36:1, Mean nmol/M cells” value (WM164 cells [1]; WM164, 2µM cTI_60d) was 0.80 nmol/M cells and the “PI 36:2, Mean nmol/M cells” value (WM164 cells [1]; WM164, 2µM cTI_60d) was 0.73 nmol/M cells. For the same compound, the “PI 38:2, Mean nmol/M cells” value (WM164 cells [1]; WM164, 2µM cTI_60d) was 0.18 nmol/M cells, the “PI 38:3, Mean nmol/M cells” value (WM164 cells [1]; WM164, 2µM cTI_60d) was 0.26 nmol/M cells and the “PI 38:4, Mean nmol/M cells” value (WM164 cells [1]; WM164, 2µM cTI_60d) was 0.46 nmol/M cells. For the same compound, the “PI 38:5, Mean nmol/M cells” value (WM164 cells [1]; WM164, 2µM cTI_60d) was 0.12 nmol/M cells, the “PC 30:0, Mean nmol/M cells” value (WM164 cells [1]; WM164, 3µM cTI_100d) was 0.74 nmol/M cells and the “PC 30:1, Mean nmol/M cells” value (WM164 cells [1]; WM164, 3µM cTI_100d) was 0.44 nmol/M cells. For the same compound, the “PC 32:0, Mean nmol/M cells” value (WM164 cells [1]; WM164, 3µM cTI_100d) was 0.42 nmol/M cells, the “PC 32:1, Mean nmol/M cells” value (WM164 cells [1]; WM164, 3µM cTI_100d) was 3.17 nmol/M cells and the “PC 32:2, Mean nmol/M cells” value (WM164 cells [1]; WM164, 3µM cTI_100d) was 0.42 nmol/M cells. The “PC 34:1, Mean nmol/M cells” value (WM164 cells [1]; WM164, 3µM cTI_100d) was 5.27 nmol/M cells, the “PC 34:2, Mean nmol/M cells” value (WM164 cells [1]; WM164, 3µM cTI_100d) was 2.18 nmol/M cells and the “PC 36:1, Mean nmol/M cells” value (WM164 cells [1]; WM164, 3µM cTI_100d) was 0.90 nmol/M cells. The “PC 36:2, Mean nmol/M cells” value (WM164 cells [1]; WM164, 3µM cTI_100d) was 2.89 nmol/M cells, the “PE 32:1, Mean nmol/M cells” value (WM164 cells [1]; WM164, 3µM cTI_100d) was 0.26 nmol/M cells and the “PE 34:1, Mean nmol/M cells” value (WM164 cells [1]; WM164, 3µM cTI_100d) was 1.09 nmol/M cells. The “PE 34:2, Mean nmol/M cells” value (WM164 cells [1]; WM164, 3µM cTI_100d) was 1.08 nmol/M cells, the “PE 36:1, Mean nmol/M cells” value (WM164 cells [1]; WM164, 3µM cTI_100d) was 1.00 nmol/M cells and the “PE 36:2, Mean nmol/M cells” value (WM164 cells [1]; WM164, 3µM cTI_100d) was 2.05 nmol/M cells. The “PE 36:3, Mean nmol/M cells” value (WM164 cells [1]; WM164, 3µM cTI_100d) was 0.26 nmol/M cells, the “PE 38:4, Mean nmol/M cells” value (WM164 cells [1]; WM164, 3µM cTI_100d) was 0.33 nmol/M cells and the “PE 38:5, Mean nmol/M cells” value (WM164 cells [1]; WM164, 3µM cTI_100d) was 0.35 nmol/M cells. For the same compound, the “PE 40:6, Mean nmol/M cells” value (WM164 cells [1]; WM164, 3µM cTI_100d) was 0.19 nmol/M cells, the “PI 34:1, Mean nmol/M cells” value (WM164 cells [1]; WM164, 3µM cTI_100d) was 0.48 nmol/M cells and the “PI 34:2, Mean nmol/M cells” value (WM164 cells [1]; WM164, 3µM cTI_100d) was 0.30 nmol/M cells. For the same compound, the “PI 36:1, Mean nmol/M cells” value (WM164 cells [1]; WM164, 3µM cTI_100d) was 1.26 nmol/M cells, the “PI 36:2, Mean nmol/M cells” value (WM164 cells [1]; WM164, 3µM cTI_100d) was 1.19 nmol/M cells and the “PI 38:2, Mean nmol/M cells” value (WM164 cells [1]; WM164, 3µM cTI_100d) was 0.23 nmol/M cells. For the same compound, the “PI 38:3, Mean nmol/M cells” value (WM164 cells [1]; WM164, 3µM cTI_100d) was 0.35 nmol/M cells, the “PI 38:4, Mean nmol/M cells” value (WM164 cells [1]; WM164, 3µM cTI_100d) was 0.61 nmol/M cells and the “PI 38:5, Mean nmol/M cells” value (WM164 cells [1]; WM164, 3µM cTI_100d) was 0.22 nmol/M cells. The cell death (WM164 cells [2]; 5 x10^3 WM164 cells seeded for 24 h, 3 µM peptide, resazurin) was 50%, the development of resistance (WM164 cells [2]; WM164, cTI 0.5 to 3 µM over 100 days) was “did not develop resistance” and the development of resistance (HT144 cells [3]) was “did not develop resistance”. For the same compound, the cell death (WM164 cells [4]) was ~ 50%, the cell morphology (WM164 cells [5]) was “more elongated and less dendritic” and the “reduction in impedance signal” value (WM164 cells [6]; 5 µM, 24 h) was ~50%. For the same compound, the “time to drop in the impedance to ∼0” value (WM164 cells [6]; 10 µM) was 2 to 3 h, the cell proliferation (WM164 cells [6]; 10^4 WM164 cells seeded for 24 h, 5 µM) was ~50% and the cell morphology (HT144 cells [7]) was “remained unchanged”. For the same compound, the “reduction in impedance signal” value (HT144 cells [8]; 5 µM, 24 h) was ~50% and the “time to drop in the impedance to ∼0” value (HT144 cells [8]; 10 µM) was 2 to 3 h.
